How the values were obtained:
Assay type in all cases: cell-based
bacterial strain SK-1 [1] = test: Growth substrate tests in liquid medium; conditions: initial concentration 100 parts per million, except chlorobenzoate 2-3 millimolar
Method: (§1) The ability of the four isolated strains to grow on selected polychlorobiphenyls as a sole carbon source was assessed.
(§2) (All tests were conducted in a liquid medium. The initial concentration of the organic substrate was 100 parts per million, except chlorobenzoate, which was 2-3 millimolar).

bacterial strain SK-2 = test: Growth substrate tests in liquid medium; conditions: initial concentration 100 parts per million, except chlorobenzoate 2-3 millimolar
Method: as §1, §2

bacterial strain SK-3 [2] = test: Growth substrate tests in liquid medium; conditions: initial concentration 100 parts per million, except chlorobenzoate 2-3 millimolar
Method: as §1, §2

bacterial strain SK-4 [3] = test: Growth substrate tests in liquid medium; conditions: initial concentration 100 parts per million, except chlorobenzoate 2-3 millimolar
Method: as §1, §2

bacterial strain SK-3 [4] = test: Characterization of SK-3: growth on and degradation of chlorobiphenyls and chlorobenzoates; conditions: for Chloride and chlorobenzoic acid (CBA) formed on degradation by SK-3: 88 hours, 23° C., aerobic, shaker table
Method: (§3) The concentrations of chlorobenzoates and dichlorobiphenyls were assessed after hexane extraction of bottles using gas chromatography analysis of the extracts with an electron capture detector. Chlorobenzoates were analyzed using standard columns after derivitization with pentafluorobenzyl bromide. Dichlorobiphenyls were analyzed using a DB-5 column (J&W Scientific, Fulsom, Calif.).
The results from this experiment are depicted in FIG. 5.
The growth of SK-3 on 4-chlorobiphenyl (4-CB) was compared with growth on its non-chlorinated form, biphenyl. […] The results from this experiment are depicted in FIG. 6. The concentration of chloride ion was determined using ion chromatography on a standard Dionex ion chromatography column. The concentration of 4-CB was assessed after hexane extraction of bottles by analyzing the hexane extracts using gas chromatography on a DB-5 column (J&W Scientific, Fulsom, Calif.) and an electron capture detector.
The growth of SK-3 on chlorobenzoates was assessed. […] The results from this experiment are depicted in FIG. 7.
The degradation of three different monochlorobiphenyls, (2-CB, 3-CB, and 4-CB) by SK-3 was assessed at 23° C. under aerobic conditions on a shaker table. After incubation of SK-3 with the selected monochlorobiphenyl for 88 hours, the concentrations of chloride and the corresponding chlorobenzoic acids (CBA) was assessed as described herein. The results from this experiment are depicted in FIG. 8.
The growth of SK-3 on dichloro-biphenyls was also assessed. […] The results of this experiment are depicted in FIG. 9.

[5] = system: consortia of bacterial strains from PCB-contaminated tertiary lagoon sludge; test: Degradation of selected PCB congeners in aerobic enrichment cultures; conditions: 100 ppm (w/v) mixture of five PCB congeners, with or without biphenyl cosubstrate; hexane extraction 45 days after inoculation, GC
Description: A consortia of bacterial strains was isolated from tertiary lagoon sludge that was contaminated with PCBs for over twenty five years. The sludge was collected from the Winston-Thomas sewage treatment plant in Bloomington, Ind. PCB-degrading strains were enriched using a minimal medium comprising a 100 ppm (w/v) mixture of the following five PCB congeners as the carbon source: 2,3-dichlorobiphenyl (DCBP), 2,4,4′-trichlorobiphenyl (TCBP), 2,4,6-trichlorobiphenyl, 2,2′,5,5′-tetrachlorobiphenyl, and 2,2′,4,4′,5,5′-hexachlorobiphenyl. Biphenyl was also added to the medium in some samples as an additional carbon source to stimulate the cometabolism of biphenyl and the PCBs. About 30-35 milliliters of the medium was inoculated with 5-10 milliliters of PCB-contaminated sludge and incubated in 160-mL serum bottles sealed with Teflon-coated stoppers. The bottles were incubated horizontally on a shaker table at room temperature. The headspace in the bottles was purged with air once a week to maintain aerobic conditions. Every 4-6 weeks, 10% of the culture was transferred to fresh medium. […] The concentrations of the PCB congeners were determined by extracting bottles with hexane 45 days after inoculation (a single bottle extraction), and analyzing hexane extracts by gas chromatography using a DB-5 column (J&W Scientific, Folsum, Calif.) and an electron capture detector. The results from this analysis are depicted in FIG. 1.

bacterial strain SK-1 [6] = test: Growth of SK-1 on 2,3-DCBP as sole carbon source and its degradation
Method: Growth of bacterial strains SK-1 and SK-2 on 2,3-DCBP and 3,4-DCBP, respectively, as a sole carbon source was determined using direct counting and an acridine orange staining method. This method involves filtering 0.1 milliliters of culture through a 0.45 micron filter, staining the cells on the filter using a 0.01% acridine orange solution for 3 to 5 minutes, and counting cells on the filter using an epifluorescent microscope at a 1000′ magnification. SK-1+ contained 2,3-dichlorobiphenyl; SK-2+ contained 3,4-dichlorobiphenyl. Control bottles in each case were identical to experimental bottles in that they were inoculated with the cultures but they lacked the appropriate congener. The initial concentration of PCBs was 500 ppm (w/v). The cell numbers of the two isolates increased by 1.5 orders of magnitude in the presence of the DCBPs used as a growth substrate. The degradation of 2,3-DCBP by SK-1 and production of 2,3-dichlorobenzoate is depicted in FIG. 3. The degradation of 3,4-DCBP by SK-2 and production of 3,4-dichlorobenzoate is depicted in FIG. 4.
as §3
The data shown in FIGS. 2, 3 and 4 illustrates the nearly complete disappearance of both 2,3-DCBP (0.38 mM initial concentration, FIG. 3) and 3,4-DCBP (0.3 mM initial concentration, FIG. 4) within 10 days of incubation. Duplicate bottles were used and error bars of the pictures represent a standard deviation. Controls contained DCBPs but lacked inoculum. DCBPs were supplied in the bottles using the non-biodegradable carrier heptamethylnonane (HMN).

bacterial strain SK-4 [7] = test: Characterization of SK-4: growth on and degradation of 2,2′-DCBP and 2,4′-DCBP; conditions: 1.5×10^7 cells per milliliter
Method: The same methods for determining concentrations of analytes and for the incubation of the bacterial strain with growth substrate described herein for the previous analyses were used in the experiments to characterize SK-4. The concentration of SK-4 cells in the experiments was 1.5×10^7 cells per milliliter and the concentration of 2,2′-DCBP or 2,4′-DCBP was 100 milligrams per liter. […] Ortho-substituted congeners are common degradation products of anaerobic reductive dechlorination of more highly chlorinated PCBs (PCBs comprising more than two chlorine atoms) by anaerobic bacteria.
2,2′-DCBP was supplied at a concentration of 100 milligrams per liter dissolved in heptamethyl nonane (HMN), a non-biodegradable PCB solvent. Controls contained HMN but lacked 2,2′-DCBP.

[8] = substrate in heptamethyl nonane

Molecule | Growth of SK-1 on the substrate as sole carbon source (bacterial strain SK-1 [1]) | Growth of SK-2 on the substrate as sole carbon source (bacterial strain SK-2) | Growth of SK-3 on the substrate as sole carbon source (bacterial strain SK-3 [2]) | Growth of SK-4 on the substrate as sole carbon source (bacterial strain SK-4 [3]) | other results
Clc1ccccc1-c1ccccc1 [2-chlorobiphenyl] | Yes | Yes | Yes | Yes | Chloride and chlorobenzoic acid (CBA) formed on degradation by SK-3 (bacterial strain SK-3 [4]): partial release of chloride and production of 2-CBA
Clc1ccc(-c2ccccc2)cc1 [4-chlorobiphenyl] | Yes | Yes | Yes | Yes | Chloride and chlorobenzoic acid (CBA) formed on degradation by SK-3 (bacterial strain SK-3 [4]): did not generate 4-CBA; Release of chloride during degradation by SK-3 (bacterial strain SK-3 [4]; chloride by ion chromatography): stoichiometric production of chloride
Clc1ccc(-c2ccc(Cl)cc2)cc1 [4,4′-DCBP] |  |  | No | No | 
Clc1cccc(-c2ccccc2)c1Cl [2,3-DCBP, 2,3-dichlorobiphenyl] | exhibited growth and Yes | No | No | No | Degradation of PCB congener in aerobic enrichment cultures [5]: degraded in bottles which lacked a cometabolic substrate; Time to nearly complete disappearance (bacterial strain SK-1 [6]; SK-1, 0.38 mM initial concentration, supplied in heptamethylnonane): ≤ 10 days; Increase of cell numbers in the presence of the DCBP as growth substrate (bacterial strain SK-1 [6]; SK-1, initial concentration 500 ppm (w/v), acridine orange direct counting): 1.5 orders of magnitude
Oc1ccccc1 [Phenol] | Yes | No | Yes | Yes | 
Clc1cccc(-c2cccc(Cl)c2)c1 [3,3′-DCBP] |  |  | No | No | 
Clc1cc(Cl)cc(-c2ccccc2)c1 [3,5-DCBP] | No | No | No | No | 
O=C(O)c1ccccc1 [Benzoate] | Yes | Yes | Yes | Yes | 
O=C(O)c1cccc(Cl)c1Cl [2,3-dichlorobenzoate] | No | No | No | No | Production of chlorobenzoate from 2,3-DCBP by SK-1 (bacterial strain SK-1 [6]; 0.38 mM 2,3-DCBP initial concentration): almost stoichiometric
O=C(O)CCl [Chloroacetate] | Yes | No | Yes | Yes | 
Clc1cc(Cl)c(-c2ccccc2)c(Cl)c1 [2,4,6-TCBP, 2,4,6-trichlorobiphenyl] |  |  |  |  | Degradation of PCB congener in aerobic enrichment cultures [5]: degraded only in the bottles which contained biphenyl as a cosubstrate
O=C(O)c1ccccc1Cl [2-chlorobenzoate] | No | No | No | No | 
Clc1ccc(-c2ccc(Cl)cc2Cl)cc1 [2,4,4′-TCBP, 2,4,4′-trichlorobiphenyl] |  |  |  |  | Degradation of PCB congener in aerobic enrichment cultures [5]: degraded only in the bottles which contained biphenyl as a cosubstrate
Clc1ccc(Cl)c(-c2ccccc2Cl)c1 [2,2′,5-TCBP] |  |  |  | No | 
c1ccc(-c2ccccc2)cc1 [Biphenyl] | Yes | Yes | Yes | Yes | 
2,3,4-trichlorobenzoate | No | No | No |  | 
Clc1ccc(-c2ccccc2Cl)cc1Cl [2′,3,4-TCBP] | No | No | No | No | 
O=C(O)c1cccc(Cl)c1 [3-chlorobenzoate] | No | No | No | No | 
Clc1ccccc1-c1cccc(Cl)c1Cl [2,2′,3-TCBP] | No | No | No | No | 
Clc1ccccc1-c1ccccc1Cl [2,2′-DCBP, 2,2′-dichlorobiphenyl] | No | No | No | exhibited growth and Yes | Growth of SK-4 on the substrate as sole carbon source (bacterial strain SK-4 [7]; 100 milligrams per liter): growth; Chloride release on degradation by SK-4 (bacterial strain SK-4 [7]; [8]): stoichiometric release of chloride; Chlorobenzoate production on degradation by SK-4 (bacterial strain SK-4 [7]; [8]): completely transformed into 2-CBA
Clc1ccc(Cl)c(-c2ccccc2)c1 [2,5-DCBP] | Likely | No | No | No | 
Clc1cccc(-c2ccccc2)c1 [3-chlorobiphenyl] | Yes | Yes | Yes | Yes | Chloride and chlorobenzoic acid (CBA) formed on degradation by SK-3 (bacterial strain SK-3 [4]): transformed 3-CB to 3-CBA without producing chloride
c1ccc2ccccc2c1 [Naphthalene] | No | No | No | No | 

— patent US6537797B1, “Compositions and methods useful in bioremediation of polychlorinated biphenyls” (Indiana University, Advanced Research and Technology …, priority 1999, dated 2003)
